Measurements from patent US20240043883A1 (Board of Trustees of Michigan State University, priority 2021, published 2024).

What was measured:
Cg10062 (E114N) = experiment: In vitro 3-HP synthesis from ACA with cofactor recycling (Cg10062 (E114N), YdfG, PTDH), HPLC and 1H NMR; format: biochemical, Corynebacterium glutamicum; details: 100 mM ACA, 0.001-1 eq NADP+; hydration significantly faster at lower NADP+
Description: (§1) This in vitro pathway developed in this study utilizes the novel Cg10062 (E114N) hydratase-only mutant with two other enzymes, YdfG and PTDH (FIG. 1). YdfG is a NADP^+-dependent 3-hydroxy acid dehydrogenase from E. coli and has previously been used for the in vivo production of 3-HP via the β-alanine pathway. […] For our system to be applied practically, the cost of cofactor is an important consideration. NADPH is an expensive cofactor and in order for the pathway to be an efficient, cost-effective pathway, the use of sub-stoichiometric amounts of co-factor was carried out. […] The formation of 3-HP in these assays were also confirmed using ^1H NMR (FIG. 4A-C).
(§2) All stocks solutions were prepared in 100 mM sodium phosphate pH 8.0. Ethylene glycol (20% w/v) was added to all enzyme stock solutions. […] Each reaction was carried out in duplicate at 25° C. with constant slow mixing on a rocking platform. Reactions were initiated by the addition of ACA. Samples from each reaction were quenched at indicated timepoints for analysis by HPLC and ^1H NMR, as described below.
All samples (100 μL) were quenched and by addition of 5 μL of 18 M sulfuric acid. The final volume was adjusted to 500 μL using 0.01 N sulfuric acid. The samples were prepared for HPLC using Whatman Mini-UniPrep® G2 syringeless filters with a glass microfiber membrane. […]

[1] = target: engineered phosphite dehydrogenase PTDH (12x Opt PTDH) from Pseudomonas stutzeri, SEQ ID NO: 73 (Stutzerimonas stutzeri, UniProt O69054, A319E/A325V/C336D/D13E/E130K/E175A/E332N/I150F/I313L/L276Q/M26I/Q132R/Q137R/Q215L/R275Q/V315A/V71I); experiment: Michaelis-Menten kinetics of PTDH with sodium phosphite, reduction of NADP^+ at 340 nm; format: biochemical; details: sodium phosphite 10-1000 μM, NADP^+ 0.3 mM; 100 mM sodium phosphate pH 8.0, 25 °C
Method: All assays were carried out in triplicate at 25° C. in 100 mM sodium phosphate pH 8.0 in a final volume of 200 μL, unless otherwise specified. All stock solutions were prepared in 100 mM sodium phosphate pH 8.0, unless otherwise specified. A sodium phosphite stock solution was prepared by dissolving an appropriate amount of the solid in a volumetric flask with water.
The assay contained PTDH (0.05 mg mL^−1, 10 μL of a 1 mg mL^−1 stock) and NADP^+ (0.3 mM, 10 μL of a 5 mg mL^−1 stock). The assays were initiated with the addition of sodium phosphite in varying concentrations (10-1000 μM). See. FIG. 23.

[2] = target: T1, Corynebacterium glutamicum Cg10062 variant E114N, SEQ ID NO: 62 (Corynebacterium glutamicum, UniProt Q8NU77, E115N); experiment: Effect of NADP(H) on ACA hydration during in vitro 3-HP synthesis with cofactor recycling; format: biochemical; details: 100 mM ACA conversion to 3-HP with 0.001-1 eq NADP^+, 25 °C, pH 8.0
T1 sequence (Q8NU77 with tags, fused parts or gaps E115N): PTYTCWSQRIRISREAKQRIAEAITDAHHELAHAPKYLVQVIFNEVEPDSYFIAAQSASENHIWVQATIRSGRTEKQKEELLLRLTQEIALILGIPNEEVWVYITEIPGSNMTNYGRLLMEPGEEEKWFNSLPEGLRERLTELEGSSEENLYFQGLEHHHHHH
Description: as §1, §2
All samples (100 μL) were quenched and by addition of 5 μL of 18 M sulfuric acid. The final volume was adjusted to 500 μL using 0.01 N sulfuric acid. The samples were prepared for HPLC using Whatman Mini-UniPrep® G2 syringeless filters with a glass microfiber membrane.

[3] = target: T1, Corynebacterium glutamicum Cg10062 variant E114N, SEQ ID NO: 62; experiment: Michaelis-Menten kinetics of ACA hydration, coupled enzyme assay (MSAD/ADH, NADH oxidation at 340 nm)
Method: Steady-state kinetics were carried out using a Molecular Devices SpectraMax iD3 multi-mode microplate reader and Shimadzu UV2600 spectrophotometer. All assays were carried out in triplicate at 25° C. in 100 mM sodium phosphate pH 8.0 with a final volume of 200 μL, unless otherwise specified. The reduction of acetaldehyde by NADH-dependent alcohol dehydrogenase (ADH) was monitored by following the oxidation of NADH at 340 nm (ε=6220 M^−1 cm^−1).
All stock solutions, except ADH, required for the kinetics assays used for determining hydratase and hydratase/decarboxylase activities were prepared in 100 mM sodium phosphate pH 8.0. […] Stock solutions of ADH were prepared using deionized water, as recommended by the manufacturer. […] The final pH of each assay was 8.
The amount of enzyme used in each assay was varied in order to observe measurable activity. […] The ratios of MSA and acetaldehyde formed by each enzyme was determined by the coupled enzyme assay (FIG. 13), using the differences in rates in the presence and absence of MSAD (Table 10). […] All other components used for steady-state kinetics were identical to those used in the initial screening assays.

[4] = substrate: O=CCC(=O)O; experiment: purified protein, by the assay type; format: biochemical, Pseudomonas putida KT2440; details: other: MSA generated in situ from ACA (50-10,000 μM), NADH 0.1 mg/mL, 100 mM potassium phosphate pH 8.0, 25 °C
Method: MmsB was characterized using the coupled enzyme assay show in FIG. 28. All assays were carried out in triplicate at 25° C. in 100 mM potassium phosphate pH 8.0, at a final volume of 1 mL. All stock solutions used for the assays were prepared in 100 mM potassium phosphate pH 8.0. […] The assay contained Cg10062 (E114N) (0.8 U), MmsB (0.001 mg mL−1, 10 μL of a 0.1 mg mL−1 stock) and NADH (0.1 mg/mL, 20 μL of a 5 mg mL−1 stock). […] All other components and methods used for steady-state kinetics were identical to those described in Example 5.

pH dependence of MmsB = format: biochemical; details: in potassium phosphate; 25° C.
Method: The pH dependence of MmsB was measured using four different buffer systems: 100 mM potassium phosphate, 50 mM Tris-HCl, 50 mM bis-tris propane and 50 mM HEPES buffers for pH 6.5-8.0, 7.0-9.0, 7.0-9.0 and 7.0-8.0, respectively. The pH dependence was studied using the respective enzyme assay used for kinetic characterization as described previously. All pH studies were carried out in triplicate (1 mL) on a Shimadzu UV2600 spectrophotometer at 25° C. and checked to ensure that the final pH of each assay remained unchanged with the addition of assay components. All stock solutions were prepared in water and the assays were carried out in the respective buffers for each pH.

[5] = substrate: O=CCC(=O)O; experiment: purified protein, by the assay type; format: biochemical, Escherichia coli; details: other: MSA generated in situ from ACA (10-2000 μM), NADPH 0.3 mM, 100 mM sodium phosphate pH 8.0, 25 °C
Method: YdfG was characterized using the coupled enzyme assay show in FIG. 19. All assays were carried out in triplicate at 25° C. in 100 mM sodium phosphate pH 8.0, in a final volume of 200 μL, unless otherwise specified. All stock solutions prepared for the assays were prepared in 100 mM sodium phosphate pH 8.0. […] The assay contained a large excess of Cg10062 (E114N) (2 U), YdfG (0.005 mg mL^−1, 10 μL of a 0.1 mg mL^−1 stock) and NADPH (0.3 mM, 10 μL of a 5 mg mL^−1 stock).

[6] = 1H NMR characterization of YdfG-catalyzed reduction of MSA; format: biochemical; details: provided with NADPH as a cofactor
Method: The volume was adjusted to 680 μL with 100 mM sodium phosphate pH 8.0. The reaction was initiated with the addition of Cg10062 (E114D) (20 μL of 3 mg mL^−1 stock). ^1H NMR spectra were obtained after incubating the samples at 25° C. for 1 h. […] Resonances at δ 2.23; (t, 2H) and δ 3.58; (t, 2H) correspond to 3-hydroxypropionate.

Chain of engineered phosphite dehydrogenase PTDH (12x Opt PTDH) from Pseudomonas stutzeri, SEQ ID NO: 73 (O69054 other isoform, or with tags, fused parts or gaps with the stated changes): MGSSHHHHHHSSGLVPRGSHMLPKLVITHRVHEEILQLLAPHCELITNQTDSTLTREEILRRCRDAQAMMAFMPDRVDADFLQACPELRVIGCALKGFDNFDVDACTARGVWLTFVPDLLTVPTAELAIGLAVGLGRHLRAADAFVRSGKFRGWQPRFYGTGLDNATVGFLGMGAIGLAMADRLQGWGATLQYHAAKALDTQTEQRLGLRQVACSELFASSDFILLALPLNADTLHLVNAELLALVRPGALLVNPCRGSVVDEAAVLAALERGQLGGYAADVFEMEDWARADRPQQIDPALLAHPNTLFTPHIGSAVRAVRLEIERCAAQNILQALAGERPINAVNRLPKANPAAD

For NADP(H) [listing 1 of 2 here], the “effect on Cg10062 (E114N) (hydration of ACA to MSA)” value (Cg10062 (E114N)) was “inhibitory effect”.

`O=[PH]([O-])[O-].[Na+].[Na+]` [sodium phosphite] gave a Km [1] of 778 ± 44 µM and a kcat [1] of 3.45 ± 0.06 s⁻¹.

With NADP(H) [listing 2 of 2 here] the “inhibitory effect on Cg10062 (E114N)” value [2] was “inhibitory effect”.

For `C#CC(=O)O` [ACA, acetylenecarboxylic acid], the “kcat fold higher than Cg10062 (E114D)” value ([3]; ACA hydration, relative to E114D) was 1.5 fold, the “kcat fold higher than Cg10062 (E114Q)” value ([3]; ACA hydration, relative to E114Q) was 3 fold and the “overall catalytic efficiency relative to wild-type” value ([3]; ACA hydration, relative to wild-type Cg10062) was “comparable to that of the wild-type enzyme”. It also gave a kcat ([3]; ACA, 100 mM sodium phosphate pH 8.0, 25 °C) of 1.04 ± 0.07 s⁻¹.

B1: P. putida KT2440 3-hydroxyisobutyrate dehydrogenase MmsB, SEQ ID NO: 76 (Pseudomonas putida KT2440) (protein)
chain: MRIAFIGLGNMGAPMARNLIKAGHQLNLFDLNKAVLAELAELGGQISPSPKDAAANSELVITMLPAAAHVRSVYLNEDGVLAGIRPGTPTVDCSTIDPQTARDVSKAAAAKGVDMGDAPVSGGTGGAAAGTLTFMVGASTELFASLKPVLEQMGRNIVHCGEVGTGQIAKICNNLLLGISMIGVSEAMALGNALGIDTKVLAGIINSSTGRCWSSDTYNPWPGIIETAPASRGYTGGFGAELMLKDLGLATEAARQAHQPVILGAVAQQLYQAMSLRGEGGKDFSAIVEGYRKKDENLYFQGLEHHHHHH
B1 gave a Km [4] of 2220 ± 192 µM, a kcat [4] of 101 ± 5 s⁻¹ and a kcat/Km [4] of 45500 ± 5900 M⁻¹ s⁻¹.

B2: MmsB: 3-hydroxyisobutyrate dehydrogenase from P. putida KT2440, SEQ ID NO: 76 (protein)
chain: MRIAFIGLGNMGAPMARNLIKAGHQLNLFDLNKAVLAELAELGGQISPSPKDAAANSELVITMLPAAAHVRSVYLNEDGVLAGIRPGTPTVDCSTIDPQTARDVSKAAAAKGVDMGDAPVSGGTGGAAAGTLTFMVGASTELFASLKPVLEQMGRNIVHCGEVGTGQIAKICNNLLLGISMIGVSEAMALGNALGIDTKVLAGIINSSTGRCWSSDTYNPWPGIIETAPASRGYTGGFGAELMLKDLGLATEAARQAHQPVILGAVAQQLYQAMSLRGEGGKDFSAIVEGYRKKDENLYFQGLEHHHHHH
modifications: MmsB from Pseudomonas putida KT2440 plus TEV protease recognition site and C-terminal His6-tag
In the case of B2, the “pH of highest activity” value (pH dependence of MmsB) is reported as 7.

B3: E. coli 3-hydroxy acid dehydrogenase YdfG, SEQ ID NO: 75 (Escherichia coli K-12) (protein)
chain: MIVLVTGATAGFGECITRRFIQQGHKVIATGRRQERLQELKDELGDNLYIAQLDVRNRAAIEEMLASLPAEWCNIDILVNNAGLALGMEPAHKASVEDWETMIDTNNKGLVYMTRAVLPGMVERNHGHIINIGSTAGSWPYAGGNVYGATKAFVRQFSLNLRTDLHGTAVRVTDIEPGLVGGTEFSNVRFKGDDGKAEKTYQNTVALTPEDVSEAVWWVSTLPAHVNINTLEMMPVTQSYAGLNVHRQENLYFQGLEHHHHHH
B3 gave a Km [5] of 137 ± 18 µM, a kcat [5] of 6.62 ± 0.43 s⁻¹ and a kcat/Km [5] of 48300 ± 7100 M⁻¹ s⁻¹.

B4: YdfG: NADP+-dependent 3-hydroxy acid dehydrogenase from E. coli, SEQ ID NO: 75 (protein)
chain: MIVLVTGATAGFGECITRRFIQQGHKVIATGRRQERLQELKDELGDNLYIAQLDVRNRAAIEEMLASLPAEWCNIDILVNNAGLALGMEPAHKASVEDWETMIDTNNKGLVYMTRAVLPGMVERNHGHIINIGSTAGSWPYAGGNVYGATKAFVRQFSLNLRTDLHGTAVRVTDIEPGLVGGTEFSNVRFKGDDGKAEKTYQNTVALTPEDVSEAVWWVSTLPAHVNINTLEMMPVTQSYAGLNVHRQENLYFQGLEHHHHHH
modifications: YdfG from Escherichia coli plus TEV protease recognition site and C-terminal His6-tag
In the case of B4, the “conversion of malonate semialdehyde to 3-HP” value [6] is reported as “complete conversion”.
